One experiment concerns the target SHP2 (Homo sapiens (Human), UniProt Q06124). As to the kind of experiment: SHP2 Biochemical Assay (DiFMUP conversion, pIRS1-activated). The protocol: SHP2 activity was monitored by measuring the conversion of the surrogate substrate 6,8-difluoromethylumbelliferyl phosphate (DiFMUP) to the fluorescent product, 6,8-difluoromethylumbelliferone (DiFMU).
SHP2 was pre-incubated with test compounds and the activating peptide pIRS1 (H2N-LN(pY)IDLDLV-(PEG)8-LST(pY)ASINFQK-amide) for 30 min, prior to addition of the 6,8-difluoromethylumbelliferyl phosphate (DiFMUP), (Thermo Fisher D6567). Final assay concentrations were 10 pM SHP2, […] pIRS1 peptide, 50 μM DiFMUP, 25 mM Bis-Tris propane, pH 7.0, 150 mM NaCl, 0.05% (v/v) Tween-20, 0.5 mM TCEP and 5% (v/v) DMSO. Rates of reaction were then measured over 30 min by monitoring fluorescence on a BMG Pherastar reader at excitation 360 nm/emission 450 nm. IC50 values were calculated in singlicate from the normalized dose-response plots using four parameter logistic curve fit. The Experiment for each compound was carried out in one time or multiple times, and the IC50 values were shown as a single value (for a compound measured in a single experiment) or an average value (for a compound measured in multiple experiments).

Experiment [1] concerns pERK (phospho-p44/42 ERK) in HCC827 cells. As to the kind of experiment: Cellular pERK Inhibition Assay, Method A (In-Cell Western). In kind it is cell-based. The note with it: Homo sapiens. The protocol:
Cellular pERK Inhibition Assay
pERK levels were determined using the In-Cell Western assay. HCC827 cells (ATCC, Manassas, USA) were seeded into 384-well plates at a density of 1×10^4 cells/well in RPMI1640 medium supplemented with 10% FBS and incubated 24h. Compounds were diluted first in DMSO and then into serum-free medium, before being added to cells in quadruplicate to give a final concentration of 0.2% DMSO. Plates were incubated at 37° C. for the indicated time in a humidified atmosphere of 5% CO2 in air.
Following compound treatment, cells were fixed with formalin neutral buffer solution for 20 minutes at room temperature. Plates were washed three times with 0.1% Triton-X in PBS and cells were blocked for 1 hour with Odyssey blocking buffer (LI-COR, #927-40000). After shaking out blocking buffer, cells were incubated with phospho-p44/42 ERK antibody (Cell Signalling Technology, #4370, 1:200) diluted in Odyssey blocking buffer at 4° C. overnight. Plates were washed again and cells were incubated for 1 hour with Goat anti-Rabbit […] (LI-COR, #926-32211, 1:800) diluted in Odyssey blocking buffer. After washing and removing wash solution completely using a centrifuge machine, cells were scanned on the Odyssey (LI-COR), following the manufacturer's instructions. The average signal from blank wells (no cells added) was subtracted from the signals from each sample well. Levels of pERK were then expressed as percent of control, using DMSO treated samples as control. The relative IC50 values were calculated in quadruplicate from the normalized dose-response plots using four parameter logistic curve fit. The Experiment for each compound was carried out in one time or multiple times, and the IC50 values were shown as a single value (for a compound measured in a single experiment) or an average value (for a compound measured in multiple experiments).

Where [2] appears, read: Table 19, head prints unit as "-M".
[3] abbreviates: Table 19, head prints unit as "-M", read-out: pERK (IC50) Method A.

Like-named read-outs stand apart in the source and are kept apart here.

Sequence of SHP2 (Q06124 whole entry): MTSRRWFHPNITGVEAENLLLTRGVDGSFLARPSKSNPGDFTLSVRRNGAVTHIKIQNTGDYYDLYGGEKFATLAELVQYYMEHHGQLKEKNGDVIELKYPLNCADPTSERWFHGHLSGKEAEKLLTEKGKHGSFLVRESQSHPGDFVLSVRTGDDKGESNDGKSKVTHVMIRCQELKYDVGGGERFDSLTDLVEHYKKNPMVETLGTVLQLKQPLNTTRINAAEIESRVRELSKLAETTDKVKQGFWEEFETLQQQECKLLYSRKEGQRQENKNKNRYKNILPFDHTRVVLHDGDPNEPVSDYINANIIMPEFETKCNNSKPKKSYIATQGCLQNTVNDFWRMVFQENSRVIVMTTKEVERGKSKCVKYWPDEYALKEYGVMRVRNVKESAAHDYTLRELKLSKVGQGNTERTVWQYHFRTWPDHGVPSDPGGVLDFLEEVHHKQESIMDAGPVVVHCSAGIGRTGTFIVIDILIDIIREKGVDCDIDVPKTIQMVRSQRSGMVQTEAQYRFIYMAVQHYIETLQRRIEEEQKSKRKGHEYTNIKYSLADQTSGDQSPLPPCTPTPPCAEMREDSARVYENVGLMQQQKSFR

On to `Cc1nc2ccc(-c3c[nH]c4nc(N5[C@H]6CC[C@@H]5[C@H](N)C6)n(C)c(=O)c34)c(Cl)c2s1` [Example 95, 2-((1R,2R,4S)-2-amino-7-azabicyclo[2.2.1]heptan-7-yl)-5-(7-chloro-2-methylbenzo[d]thiazol-6-yl)-3-methyl-3,7-dihydro-4H-pyrrolo[2,3-d]pyrimidin-4-one], for which the IC50 against SHP2 (setting [2]) turned out to be 2.5 nM; in experiment [1] (setting [3]), 0.068 µM.
Taken in the same sequence, the figures for `CN[C@H]1[C@H]2CC[C@@H]1N(c1nc3[nH]cc(-c4ccc5nn(C)cc5c4Cl)c3c(=O)n1C)C2` (racemic) [Example 135, rac-5-(4-chloro-2-methyl-2H-indazol-5-yl)-3-methyl-2-((1S,4S,7S)-7-(methylamino)-2-azabicyclo[2.2.1]heptan-2-yl)-3,7-dihydro-4H-pyrrolo[2,3-d]pyrimidin-4-one] were 48 nM and 0.95 µM.
In the case of `CCn1cc2c(Cl)c(-c3c[nH]c4nc(N5[C@@H]6CC[C@H]5C[C@@H](N)C6)n(C)c(=O)c34)ccc2n1` [Example 5, 2-(endo-3-amino-8-azabicyclo[3.2.1]octan-8-yl)-5-(4-chloro-2-ethyl-2H-indazol-5-yl)-3-methyl-3,7-dihydro-4H-pyrrolo[2,3-d]pyrimidin-4-one], the concentration for half-maximal inhibition (IC50) on SHP2 (setting [2]) came to 7.5 nM; in experiment [1] (setting [3]) it was 0.16 µM.
Regarding `Cn1cc2c(Cl)c(-c3c[nH]c4nc(N5CC6CC6(N)C5)n(C)c(=O)c34)ccc2n1` (centres unmarked) [Example 61, 2-(1-amino-3-azabicyclo[3.1.0]hexan-3-yl)-5-(4-chloro-2-methyl-2H-indazol-5-yl)-3-methyl-3,7-dihydro-4H-pyrrolo[2,3-d]pyrimidin-4-one], the half-maximal inhibitory concentration (IC50) against SHP2 (setting [2]) was determined as 98 nM; in experiment [1] (setting [3]), 1.8 µM.
`Cn1nc2ccc(-c3n[nH]c4nc(N5[C@H]6CC[C@@H]5[C@H](N)C6)n(C)c(=O)c34)c(Cl)c2c1Cl` [Example 114, 6-((1R,2R,4S)-2-amino-7-azabicyclo[2.2.1]heptan-7-yl)-3-(3,4-dichloro-2-methyl-2H-indazol-5-yl)-5-methyl-1,5-dihydro-4H-pyrazolo[3,4-d]pyrimidin-4-one]: the IC50 amounted to 5.5 nM on SHP2 (setting [2]) and 0.073 µM in experiment [1] (setting [3]).
Taken in the same sequence, the figures for `Cn1cc2c(Cl)c(-c3c[nH]c4nc(N5CC[C@@H](CN)C5)n(C)c(=O)c34)ccc2n1` [Example 63, (S)-2-(3-(aminomethyl)pyrrolidin-1-yl)-5-(4-chloro-2-methyl-2H-indazol-5-yl)-3-methyl-3,7-dihydro-4H-pyrrolo[2,3-d]pyrimidin-4-one] were 110 nM and 4.3 µM.
The corresponding values for `Cn1cc2c(Cl)c(-c3c[nH]c4nc(N5CC6CCC(C5)N6)n(C)c(=O)c34)ccc2n1` [Example 28, 2-(3,8-diazabicyclo[3.2.1]octan-3-yl)-5-(4-chloro-2-methyl-2H-indazol-5-yl)-3-methyl-3,7-dihydro-4H-pyrrolo[2,3-d]pyrimidin-4-one] are 19 nM and 0.68 µM.
Taken in the same sequence, the figures for `CN[C@@H]1C[C@@H]2CC[C@H]1N2c1nc2[nH]nc(-c3ccc4nc(C)sc4c3Cl)c2c(=O)n1C` [Example 124, 3-(7-chloro-2-methylbenzo[d]thiazol-6-yl)-5-methyl-6-((1R,2R,4S)-2-(methylamino)-7-azabicyclo[2.2.1]heptan-7-yl)-1,5-dihydro-4H-pyrazolo[3,4-d]pyrimidin-4-one] were 19 nM and 0.43 µM.
As for `CN[C@@H]1C[C@@H]2CC[C@H]1N2c1nc2[nH]cc(-c3ccc4nn(C)c(Cl)c4c3F)c2c(=O)n1C` [Example 106, 5-(3-chloro-4-fluoro-2-methyl-2H-indazol-5-yl)-3-methyl-2-((1R,2R,4S)-2-(methylamino)-7-azabicyclo[2.2.1]heptan-7-yl)-3,7-dihydro-4H-pyrrolo[2,3-d]pyrimidin-4-one], the IC50 on SHP2 (setting [2]) was found to be 5 nM; in experiment [1] (setting [3]), 0.1 µM.
Taken in the same sequence, the figures for `CCc1nc2ccc(-c3c[nH]c4nc(N5[C@@H]6CC[C@H]5C[C@@H](N)C6)n(C)c(=O)c34)c(Cl)c2o1` [Example 69, 2-(endo-3-amino-8-azabicyclo[3.2.1]octan-8-yl)-5-(7-chloro-2-ethylbenzo[d]oxazol-6-yl)-3-methyl-3,7-dihydro-4H-pyrrolo[2,3-d]pyrimidin-4-one] were 120 nM and 3 µM.
Taken in the same sequence, the figures for `Cn1cc2c(Cl)c(-c3c[nH]c4nc(N5[C@@H]6CC[C@H]5[C@H](F)[C@H](N)C6)n(C)c(=O)c34)ccc2n1` (racemic) [Example 26, rac-2-((1S,2R,3R,5R)-3-amino-2-fluoro-8-azabicyclo[3.2.1]octan-8-yl)-5-(4-chloro-2-methyl-2H-indazol-5-yl)-3-methyl-3,7-dihydro-4H-pyrrolo[2,3-d]pyrimidin-4-one] were 11 nM and 0.088 µM.
The corresponding values for `Cn1cc2c(Cl)c(-c3c[nH]c4nc(N5CC6CC(C5)N6)n(C)c(=O)c34)ccc2n1` [Example 31, 2-(3,6-diazabicyclo[3.1.1]heptan-3-yl)-5-(4-chloro-2-methyl-2H-indazol-5-yl)-3-methyl-3,7-dihydro-4H-pyrrolo[2,3-d]pyrimidin-4-one] are 40 nM and 1 µM.
With `Cc1nc2ccc(-c3c[nH]c4nc(N5[C@@H]6CC[C@H]5C[C@@H](N)C6)n(C)c(=O)c34)c(Cl)c2s1` [Example 7, 2-(endo-3-amino-8-azabicyclo[3.2.1]octan-8-yl)-5-(7-chloro-2-methylbenzo[d]thiazol-6-yl)-3-methyl-3,7-dihydro-4H-pyrrolo[2,3-d]pyrimidin-4-one], the IC50 is 9 nM at SHP2 (setting [2]) and 0.17 µM in experiment [1] (setting [3]).
Taken in the same sequence, the figures for `Cn1c(N2C3CCCC2CNC3)nc2[nH]nc(-c3ccc4ncsc4c3Cl)c2c1=O` [Example 122, 6-(3,9-diazabicyclo[3.3.1]nonan-9-yl)-3-(7-chlorobenzo[d]thiazol-6-yl)-5-methyl-1,5-dihydro-4H-pyrazolo[3,4-d]pyrimidin-4-one] were 8 nM and 0.14 µM.
The corresponding values for `Cn1cc2c(Cl)c(-c3c[nH]c4nc(N5CCC(F)(CN)CC5)n(C)c(=O)c34)ccc2n1` [Example 65, 2-(4-(aminomethyl)-4-fluoropiperidin-1-yl)-5-(4-chloro-2-methyl-2H-indazol-5-yl)-3-methyl-3,7-dihydro-4H-pyrrolo[2,3-d]pyrimidin-4-one] are 33 nM and 0.43 µM.
Consider `Cn1c(N2[C@@H]3CC[C@H]2C[C@@H](N)C3)nc2[nH]cc(-c3ccc4nccnc4c3Cl)c2c1=O` [Example 176, 2-(endo-3-amino-8-azabicyclo[3.2.1]octan-8-yl)-5-(5-chloroquinoxalin-6-yl)-3-methyl-3,7-dihydro-4H-pyrrolo[2,3-d]pyrimidin-4-one], for which the half-maximal inhibitory concentration (IC50) was determined as 77 nM against SHP2 (Table 20) and 0.66 µM in experiment [1] (Table 20, read-out: pERK (IC50, μM) Method A).
On to `C[C@@H]1OCC2(CCN(c3nc4[nH]cc(-c5ccc6nn(C)cc6c5Cl)c4c(=O)n3C)CC2)[C@@H]1N` [Example 59, 2-((3S,4S)-4-amino-3-methyl-2-oxa-8-azaspiro[4.5]decan-8-yl)-5-(4-chloro-2-methyl-2H-indazol-5-yl)-3-methyl-3,7-dihydro-4H-pyrrolo[2,3-d]pyrimidin-4-one], for which the IC50 at SHP2 (setting [2]) is 5.5 nM; in experiment [1] (setting [3]), 0.048 µM.
Taken in the same sequence, the figures for `CCn1cc2c(Cl)c(-c3c[nH]c4nc(N5[C@@H]6CC[C@H]5C[C@@](C)(N)C6)n(C)c(=O)c34)ccc2n1` [Example 15, 2-(endo-3-amino-3-methyl-8-azabicyclo[3.2.1]octan-8-yl)-5-(4-chloro-2-ethyl-2H-indazol-5-yl)-3-methyl-3,7-dihydro-4H-pyrrolo[2,3-d]pyrimidin-4-one] were 17 nM and 0.5 µM.
The corresponding values for `Cn1nc2ccc(-c3c[nH]c4nc(N5[C@@H]6CC[C@H]5C[C@@](C)(N)C6)n(C)c(=O)c34)c(Cl)c2c1Cl` [Example 79, 2-(endo-3-amino-3-methyl-8-azabicyclo[3.2.1]octan-8-yl)-5-(3,4-dichloro-2-methyl-2H-indazol-5-yl)-3-methyl-3,7-dihydro-4H-pyrrolo[2,3-d]pyrimidin-4-one] are 5.5 nM and 0.16 µM.

What is called IC50 is the concentration needed to halve the response being measured.

For the origin of these results see US12037345B2, “Heterobicyclic compounds for inhibiting the activity of SHP2” (TAIHO PHARMACEUTICAL CO., LTD., priority 2018, dated 2024).
